In patent US20240174648A1, “Small Molecule Compound” (Technoderma Medicines Pte Ltd, priority 2019, published 2024) one finds IC50 data, which are given here for 13 compounds.

Common to all, as to format: biochemical
For one assay, the target named is JAK1 (Homo sapiens, UniProt P23458). The assay can be described thus: JAK kinase inhibition assay (EZ Reader, peptide substrate phosphorylation) - JAK1. Conditions: JAK1 kinase 20 nM; 8 concentration points, max 10 μM. In short, it runs like this:
(§1)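 Microfluidic mobility-shift detection of fluorescent peptide substrate phosphorylation, with JAK1 at 20 nM and JAK2, JAK3 and Tyk2 each at 1 nM final, in 20 mM HEPES pH 7.4, 10 mM MgCl2, 1 mM DTT. Reactions run at room temperature to 20–30% conversion, then EDTA-stopped. Compounds tested at 8 three-fold dilutions from 10 μM top final; IC50 from conversion curves.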

The next assay concerns the target T1, JAK3 (Homo sapiens, UniProt P52333).
T1 sequence (P52333 1-1124): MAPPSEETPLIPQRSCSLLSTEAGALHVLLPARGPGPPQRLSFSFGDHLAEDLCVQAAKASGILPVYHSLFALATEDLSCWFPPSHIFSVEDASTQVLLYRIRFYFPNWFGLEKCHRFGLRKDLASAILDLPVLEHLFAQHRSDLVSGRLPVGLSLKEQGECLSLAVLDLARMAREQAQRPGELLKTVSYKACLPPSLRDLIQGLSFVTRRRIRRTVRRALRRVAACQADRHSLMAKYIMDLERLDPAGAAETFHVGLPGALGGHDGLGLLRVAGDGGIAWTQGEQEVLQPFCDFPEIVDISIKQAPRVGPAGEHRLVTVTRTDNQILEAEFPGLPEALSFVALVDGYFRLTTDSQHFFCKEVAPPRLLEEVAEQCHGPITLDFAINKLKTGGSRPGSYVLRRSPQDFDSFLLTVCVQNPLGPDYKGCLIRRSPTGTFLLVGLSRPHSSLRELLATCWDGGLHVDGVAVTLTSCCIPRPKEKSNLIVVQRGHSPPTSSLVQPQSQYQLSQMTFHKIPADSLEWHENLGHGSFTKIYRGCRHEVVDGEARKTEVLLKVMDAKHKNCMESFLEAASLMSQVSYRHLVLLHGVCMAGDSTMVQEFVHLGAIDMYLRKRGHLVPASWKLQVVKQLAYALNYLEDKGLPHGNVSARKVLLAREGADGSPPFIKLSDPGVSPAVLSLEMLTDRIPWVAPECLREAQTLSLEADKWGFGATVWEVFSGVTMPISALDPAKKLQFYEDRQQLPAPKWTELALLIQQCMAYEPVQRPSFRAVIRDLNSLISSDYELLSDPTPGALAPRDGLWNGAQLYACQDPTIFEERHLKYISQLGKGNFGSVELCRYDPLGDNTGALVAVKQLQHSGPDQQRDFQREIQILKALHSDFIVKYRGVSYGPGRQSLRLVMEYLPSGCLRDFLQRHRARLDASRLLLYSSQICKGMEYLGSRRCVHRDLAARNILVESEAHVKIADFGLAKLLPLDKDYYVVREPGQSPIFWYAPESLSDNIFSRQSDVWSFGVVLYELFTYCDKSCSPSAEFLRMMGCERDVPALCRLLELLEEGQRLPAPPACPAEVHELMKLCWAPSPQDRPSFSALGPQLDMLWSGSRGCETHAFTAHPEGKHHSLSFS
The assay can be described thus: JAK kinase inhibition assay (EZ Reader, peptide substrate phosphorylation) - JAK3. The conditions noted are these: JAK3 kinase 1 nM; 8 concentration points, max 10 μM. The source says: (§2) Assay for Identifying Inhibitory Effects of Compounds on JAK Kinases
(§3) Janus kinases (JAK), including JAK1, JAK2, JAK3 and Tyk2, transduce a cytokine-mediated signal through a JAK-STAT pathway. The kinases are 120-140 kDa in size and have 7 determined homology regions: JH1 to JH7. JH1 is an important region for enzymatic activity and has typical characteristics of tyrosine kinases. Phosphorylation of tyrosine leads to a change in the conformation of JAK protein, thereby promoting binding of substrate. The JAK-STAT system includes three main parts: receptors penetrating a cell membrane, Janus kinases binding to the receptors, and signal transducers and activators of transcription (STAT) for transmitting signals to a nucleus and DNA. When cytokines bind to receptors, JAK phosphorylates the receptors and attracts STAT proteins. The STAT proteins are also phosphorylated and combined with one another to form dimers. The dimers enter the nucleus and bind to DNA, thereby leading to gene transcription.
(§4) EZ Reader from PerkinElmer can be used to detect the phosphorylation of polypeptide substrates catalyzed by kinases. The device is based on microfluidic techniques, and can directly detect fluorescently labeled substrates and products. The separation step is achieved by controlling the pressure and electric field strength in the microfluidic chip. In kinase assays, a product conversion ratio is usually controlled to be 20-30%. A biological test is used to identify inhibitory effects of compounds on JAKs.
(§5) Compound powder was dissolved in DMSO, sealed and stored in a freezer under −20° C. The in-house compound Ref1 was used as a positive control for JAK1, JAK2 and Tyk2 tests, and Ref2 was used as a positive control for JAK3 tests.
(§6) S2.8. Assay buffer: 20 mM HEPES buffer, pH 7.4, 10 mM magnesium chloride, 0.01% bovine serum albumin BSA, 0.0005% Tween-20 and 1 mM dithiothreitol solution.
(§7) S2.9. Stop buffer: 180 mM HEPES buffer, 20 mM ethylenediaminetetraacetic acid and 0.2% coating reagent 3.
(§8) S2.10. Separation buffer: 100 mM HEPES buffer, 10 mM ethylenediaminetetraacetic acid, 0.0005% Tween 20, 0.1% coating reagent 3 and 1% dimethyl sulfoxide.
The compound was dissolved in dimethyl sulfoxide and diluted to 10 mM concentration, a certain volume of solution was taken and diluted to 0.6 mM concentration, 10 μL of the 0.6 mM dilution was added to a 384-well microplate, and then was diluted 3-fold with a total of 8 concentration points. […]
Positive control (HPE1): Ref2, final concentration: 10 μM
(§9) Negative control (ZPE): DMSO, final content: 1.6%
(§10) Compounds: maximum final concentration: 10 μM; 3-fold dilution, 8 concentration points and 2 duplicates.
(§11) S4.1. 250 nL of the compound was added to each well of the assay microplate by using ECHO, and centrifuged at 1000 rpm for 1 minute.
(§12) S4.2. 5 μL of the assay buffer was added and agitated for a few seconds to fully dissolve the compound.
(§13) S4.3. 5 μL of 3× substrate solution and 5 μL of 3× kinase solution were added and centrifuged at 800 rpm for 1 minute.
(§14) S4.4. Final concentrations of JAK1, JAK2, JAK3 and Tyk2 kinases in the reaction system were 20 nM, 1 nM, 1 nM and 1 nM respectively.
(§15) S4.5. Incubation at room temperature, where kinases had time differences, and different batches of kinases had time differences.
(§16) S4.6. When 20%-30% of the reaction completed, 15 μL of stop buffer was added to stop the reaction, and centrifuged at 1000 rpm for 2 minutes.
(§17) S4.7. The microplates were placed on EZ Reader for reading.
(§18) S4.8. Readings on EZ Reader were calculated by using a peak height, where product conversion ratio (%)=product/(product+substrate)*100.
(§19) 5. Data Processing: IC50 calculation
(§20) A graphing software Xlfit was used to form a concentration curve of the test compound, and an IC50 value was calculated.
(§21) “A” means “≥10 μM”; “B” means “≥1 μM and <10 μM”; “C” means “≥0.1 μM and <1 μM”; and “D” means “<0.1 μM”.

A further assay addresses Tyk2 (Homo sapiens, UniProt P29597). The assay can be described thus: JAK kinase inhibition assay (EZ Reader, peptide substrate phosphorylation) - Tyk2. Conditions: Tyk2 kinase 1 nM; 8 concentration points, max 10 μM. In short, it runs like this:
as §1

A further assay concerns the target JAK2 (Homo sapiens, UniProt O60674). The experiment in a line: JAK kinase inhibition assay (EZ Reader, peptide substrate phosphorylation) - JAK2. The conditions noted are these: JAK2 kinase 1 nM; 8 concentration points, max 10 μM.
Description: as §2, §3, §4, §5, §6, §7, §8
The compound was dissolved in dimethyl sulfoxide and diluted to 10 mM concentration, a certain volume of solution was taken and diluted to 0.6 mM concentration, 10 μL of the 0.6 mM dilution was added to a 384-well microplate, and then was diluted 3-fold with a total of 8 concentration points.
Positive control (HPE1): Ref1, final concentration: 10 μM […]
as §9, §10, §11, §12, §13, §14, §15, §16, §17, §18, §19, §20, §21

Chain of Tyk2 (P29597 whole entry): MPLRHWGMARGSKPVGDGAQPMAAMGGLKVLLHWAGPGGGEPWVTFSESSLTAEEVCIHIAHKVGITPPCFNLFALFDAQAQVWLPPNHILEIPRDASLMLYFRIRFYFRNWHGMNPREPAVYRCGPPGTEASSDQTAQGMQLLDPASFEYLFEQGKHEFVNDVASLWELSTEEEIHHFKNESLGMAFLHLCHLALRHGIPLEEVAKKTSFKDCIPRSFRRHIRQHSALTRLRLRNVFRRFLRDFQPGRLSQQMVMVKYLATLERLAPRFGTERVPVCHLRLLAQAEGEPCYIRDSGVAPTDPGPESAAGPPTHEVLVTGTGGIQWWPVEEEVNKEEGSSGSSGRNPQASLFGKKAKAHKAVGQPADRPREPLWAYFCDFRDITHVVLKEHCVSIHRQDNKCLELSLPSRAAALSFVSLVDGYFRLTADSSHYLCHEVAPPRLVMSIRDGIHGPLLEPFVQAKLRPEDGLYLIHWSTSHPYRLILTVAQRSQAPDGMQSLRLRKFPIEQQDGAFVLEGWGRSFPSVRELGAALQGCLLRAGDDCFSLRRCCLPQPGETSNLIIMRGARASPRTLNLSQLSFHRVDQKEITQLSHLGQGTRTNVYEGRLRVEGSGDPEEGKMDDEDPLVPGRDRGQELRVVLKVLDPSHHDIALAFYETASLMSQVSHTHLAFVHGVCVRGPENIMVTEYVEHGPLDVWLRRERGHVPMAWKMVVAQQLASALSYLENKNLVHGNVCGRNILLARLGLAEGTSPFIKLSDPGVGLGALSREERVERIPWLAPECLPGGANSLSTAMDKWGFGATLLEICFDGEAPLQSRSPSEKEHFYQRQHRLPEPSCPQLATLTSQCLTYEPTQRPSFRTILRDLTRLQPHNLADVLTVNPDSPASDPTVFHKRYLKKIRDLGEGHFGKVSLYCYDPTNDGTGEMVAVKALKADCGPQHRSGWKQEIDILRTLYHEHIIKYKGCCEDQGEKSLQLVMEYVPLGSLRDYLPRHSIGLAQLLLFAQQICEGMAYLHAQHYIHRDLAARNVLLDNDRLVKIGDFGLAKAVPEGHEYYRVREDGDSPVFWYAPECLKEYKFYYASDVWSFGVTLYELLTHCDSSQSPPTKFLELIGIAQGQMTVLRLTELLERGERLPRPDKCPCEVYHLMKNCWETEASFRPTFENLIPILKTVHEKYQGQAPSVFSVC
Chain of JAK2 (O60674 whole entry): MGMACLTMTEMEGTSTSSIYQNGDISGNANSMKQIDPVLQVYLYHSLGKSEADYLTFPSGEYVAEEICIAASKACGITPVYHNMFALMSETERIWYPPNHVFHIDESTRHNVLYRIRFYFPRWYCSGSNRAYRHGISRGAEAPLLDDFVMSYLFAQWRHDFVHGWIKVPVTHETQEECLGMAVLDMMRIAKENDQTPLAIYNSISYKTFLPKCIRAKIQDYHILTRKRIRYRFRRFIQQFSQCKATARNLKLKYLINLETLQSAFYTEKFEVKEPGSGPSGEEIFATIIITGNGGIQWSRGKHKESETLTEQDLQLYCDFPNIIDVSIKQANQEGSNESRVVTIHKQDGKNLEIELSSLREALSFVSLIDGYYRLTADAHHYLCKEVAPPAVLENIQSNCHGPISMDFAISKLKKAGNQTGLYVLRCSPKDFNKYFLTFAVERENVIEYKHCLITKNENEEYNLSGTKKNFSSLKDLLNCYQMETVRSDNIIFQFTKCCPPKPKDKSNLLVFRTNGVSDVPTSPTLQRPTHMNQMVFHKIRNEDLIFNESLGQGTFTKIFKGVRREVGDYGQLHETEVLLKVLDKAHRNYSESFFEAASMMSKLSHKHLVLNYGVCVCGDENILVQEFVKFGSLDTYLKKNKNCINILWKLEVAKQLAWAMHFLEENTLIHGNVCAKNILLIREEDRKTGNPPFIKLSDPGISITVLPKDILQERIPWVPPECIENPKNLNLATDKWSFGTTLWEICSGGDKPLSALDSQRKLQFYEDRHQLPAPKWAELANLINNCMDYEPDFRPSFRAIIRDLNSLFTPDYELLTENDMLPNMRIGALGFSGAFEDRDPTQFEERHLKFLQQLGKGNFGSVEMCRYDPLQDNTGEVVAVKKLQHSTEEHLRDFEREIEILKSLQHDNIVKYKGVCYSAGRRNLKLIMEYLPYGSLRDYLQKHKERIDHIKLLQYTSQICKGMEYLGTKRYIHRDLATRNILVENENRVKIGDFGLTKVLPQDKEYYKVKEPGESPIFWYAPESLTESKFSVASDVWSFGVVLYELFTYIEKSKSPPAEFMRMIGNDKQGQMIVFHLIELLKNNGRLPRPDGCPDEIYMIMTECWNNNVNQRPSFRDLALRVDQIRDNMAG
Chain of JAK1 (P23458 whole entry): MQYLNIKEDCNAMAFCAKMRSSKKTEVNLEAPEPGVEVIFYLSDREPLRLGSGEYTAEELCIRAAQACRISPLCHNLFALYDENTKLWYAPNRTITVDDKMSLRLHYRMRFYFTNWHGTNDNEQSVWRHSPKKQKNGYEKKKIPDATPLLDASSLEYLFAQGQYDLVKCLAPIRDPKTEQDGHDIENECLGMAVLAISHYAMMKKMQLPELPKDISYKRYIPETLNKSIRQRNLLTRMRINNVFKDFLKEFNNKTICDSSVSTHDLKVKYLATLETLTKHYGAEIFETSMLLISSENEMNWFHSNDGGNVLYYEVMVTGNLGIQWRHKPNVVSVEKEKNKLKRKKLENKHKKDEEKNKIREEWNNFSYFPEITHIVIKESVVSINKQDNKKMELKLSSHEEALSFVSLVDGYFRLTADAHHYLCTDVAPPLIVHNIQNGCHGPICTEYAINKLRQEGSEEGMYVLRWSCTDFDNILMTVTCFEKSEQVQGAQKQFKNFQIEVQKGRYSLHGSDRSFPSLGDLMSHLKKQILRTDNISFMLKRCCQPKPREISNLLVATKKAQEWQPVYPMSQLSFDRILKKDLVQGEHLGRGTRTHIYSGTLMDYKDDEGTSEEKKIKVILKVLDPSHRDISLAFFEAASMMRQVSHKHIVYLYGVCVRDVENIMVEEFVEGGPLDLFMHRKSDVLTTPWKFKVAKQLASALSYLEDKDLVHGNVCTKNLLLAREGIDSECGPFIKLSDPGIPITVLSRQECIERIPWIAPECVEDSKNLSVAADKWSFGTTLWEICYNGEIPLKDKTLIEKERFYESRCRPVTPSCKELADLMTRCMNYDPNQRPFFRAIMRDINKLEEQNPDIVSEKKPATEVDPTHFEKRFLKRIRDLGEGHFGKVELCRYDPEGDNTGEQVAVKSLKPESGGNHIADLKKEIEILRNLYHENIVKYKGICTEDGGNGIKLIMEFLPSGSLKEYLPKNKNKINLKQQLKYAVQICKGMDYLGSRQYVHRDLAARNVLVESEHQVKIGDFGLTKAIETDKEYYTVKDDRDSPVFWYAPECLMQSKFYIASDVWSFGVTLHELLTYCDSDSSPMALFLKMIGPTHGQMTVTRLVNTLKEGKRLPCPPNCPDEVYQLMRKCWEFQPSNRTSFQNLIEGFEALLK

For `Cn1cc(Nc2nccc(-c3ccc(NS(=O)(=O)C4CC4)cc3)n2)cn1` [TDM-180767, N-(4-(2-((1-methyl-1H-pyrazol-4-yl)amino)pyrimidin-4-yl)phenyl)cyclopropanesulfo], the IC50 (usually the concentration that inhibits the measured activity by half) at JAK1 fell in the range of 0.1 to 1 µM; on JAK3, 1 to 10 µM; against Tyk2, 0.1 to 1 µM; against JAK2 it was 0.1 to 1 µM.

For `CCS(=O)(=O)Nc1ccc(-c2ccnc(Nc3cnn(C)c3)n2)cc1` [TDM-180768, N-(4-(2-((1-methyl-1H-pyrazol-4-yl)amino)pyrimidin-4-yl)phenyl)ethanesulfonamide], the IC50 against JAK1 is 0.1 to 1 µM; against JAK3 it was 1 to 10 µM; against Tyk2 it was 0.1 to 1 µM; against JAK2 it was 0.1 to 1 µM.

On to `Cc1cc(-c2ccnc(Nc3cnn(C)c3)n2)ccc1C(=O)NCC(F)(F)F` [TDM-180780, 2-methyl-4-(2-((1-methyl-1H-pyrazol-4-yl)amino)pyrimidin-4-yl)-N-(2,2,2-trifluoroethyl)benzamide], for which the IC50 at JAK1 is 0.1 to 1 µM; against JAK3, above 10 µM; at Tyk2 it was 0.1 to 1 µM; on JAK2 it was 1 to 10 µM.

With `Cn1cc(Nc2nccc(-c3ccc(NC(=O)C4(C)CC4)cc3)n2)cn1` [TDM-180802, 1-methyl-N-(4-(2-((1-methyl-1H-pyrazol-4-yl)amino)pyrimidin-4-yl)phenyl)cyclopropane-1-carboxamide], the IC50 is 0.1 to 1 µM against JAK1, at least 10 µM at JAK3, 0.1 to 1 µM on Tyk2 and 0.1 to 1 µM against JAK2.

As to `Cn1cc(Nc2nccc(-c3ccc(NC(=O)C4(F)CC4)cc3)n2)cn1` [TDM-180803, 1-fluoro-N-(4-(2-((1-methyl-1H-pyrazol-4-yl)amino)pyrimidin-4-yl)phenyl)cyclopropane-1-carboxamide], the IC50 at JAK1 is 0.1 to 1 µM; at JAK3, at least 10 µM; at Tyk2, 0.1 to 1 µM; at JAK2, 0.1 to 1 µM.

Take `Cn1cc(Nc2nccc(-c3ccc(NC(=O)CC4CC4)cc3)n2)cn1` [TDM-180804, 2-cyclopropyl-N-(4-(2-((1-methyl-1H-pyrazol-4-yl)amino)pyrimidin-4-yl)phenyl)acetamide]: the IC50 on JAK1 was 0.1 to 1 µM; against JAK3 it was 1 to 10 µM; on Tyk2, 0.1 to 1 µM; at JAK2, 0.1 to 1 µM.

As for `Cn1cc(Nc2nccc(-c3ccc(NC(=O)C(F)F)cc3)n2)cn1` [TDM-180805, 2,2-difluoro-N-(4-(2-((1-methyl-1H-pyrazol-4-yl)amino)pyrimidin-4-yl)phenyl)acetamide], the IC50 fell in the range of 0.1 to 1 µM against JAK1, 1 to 10 µM on JAK3, 0.1 to 1 µM against Tyk2 and 0.1 to 1 µM on JAK2.

With `Cn1cc(Nc2nccc(-c3ccc(NC(=O)C4CCC4)cc3)n2)cn1` [TDM-180813, N-(4-(2-((1-methyl-1H-pyrazol-4-yl)amino)pyrimidin-4-yl)phenyl)cyclobutanemethyl], the IC50 was 0.1 to 1 µM against JAK1, at least 10 µM at JAK3, 1 to 10 µM at Tyk2 and 0.1 to 1 µM against JAK2.

In the case of `COCCC(=O)Nc1ccc(-c2ccnc(Nc3cnn(C)c3)n2)cn1` [TDM-180814, 3-methoxy-N-(5-(2-((1-methyl-1H-pyrazol-4-yl)amino)pyrimidin-4-yl)pyridin-2-yl)propanamide], the IC50 against JAK1 was in the range of 0.1 to 1 µM; against JAK3, 1 to 10 µM; against Tyk2, 1 to 10 µM; against JAK2, 0.1 to 1 µM.

In the case of `Cn1cc(Nc2nccc(-c3ccc(NC(=O)CC4CC4)nc3)n2)cn1` [TDM-180818, 2-cyclopropyl-N-(5-(2-((1-methyl-1H-pyrazol-4-yl)amino)pyrimidin-4-yl)pyridin-2-yl)acetamide], the IC50 was in the range of 0.1 to 1 µM at JAK1, 1 to 10 µM on JAK3, 0.1 to 1 µM against Tyk2 and 0.1 to 1 µM against JAK2.

Turning to `Cn1cc(Nc2nccc(-c3ccc(NC(=O)C4CC4)nc3)n2)cn1` [TDM-180819, N-(5-(2-((1-methyl-1H-pyrazol-4-yl)amino)pyrimidin-4-yl)pyridin-2-yl)cyclopropylcarboxamide], the IC50 against JAK1 was in the range of 0.1 to 1 µM; at JAK3, 1 to 10 µM; against Tyk2, 0.1 to 1 µM; against JAK2, 0.1 to 1 µM.

`Cn1cc(Nc2nccc(-c3ccc(NS(=O)(=O)Cc4ccccc4)cc3)n2)cn1` [TDM-180820, N-(4-(2-((1-methyl-1H-pyrazol-4-yl)amino)pyrimidin-4-yl)phenyl)-1-phenylmethanesulfonamide]: the IC50 against JAK1, against JAK3, against Tyk2 and on JAK2 was below 0.1 µM in each case.

`Cn1cc(Nc2nccc(-c3ccc(NC(=O)C4(F)CC4)nc3)n2)cn1` [TDM-180821, 1-fluoro-N-(5-(2-((1-methyl-1H-pyrazol-4-yl)amino)pyrimidin-4-yl)pyridin-2-yl)cyclopropane-1-carboxamide]: the IC50 against JAK1 is 0.1 to 1 µM; at JAK3 it was at least 10 µM; against Tyk2 it was 0.1 to 1 µM; against JAK2 it was 0.1 to 1 µM.
